Source: article PMC7367283, “A PIP2 substitute mediates voltage sensor-pore coupling in KCNQ activation” (Communications Biology, 2020)
Where “and” joins values, the source holds several entries; their conditions need not be identical. Identical values can stand only once.

Target: KCNQ3 with mutation A315T (KCNQ3*) (Homo sapiens, UniProt O43525, A315T)
Test: Two-electrode voltage clamp of KCNQ3* in Xenopus oocytes
Type: cell-based
Details: Q3*, individual oocytes
Text: KCNQ2 and KCNQ3 form a channel complex that carries M currents in neurons. Similar to KCNQ1, these KCNQ subunits require PIP2 for voltage-dependent activation. KCNQ2 alone can express functional channels in Xenopus oocytes, while KCNQ3 alone cannot. However, a single mutation, A315T, allows KCNQ3 to functionally express in Xenopus oocytes. We examined the effects of CP1 on KCNQ2, KCNQ3 with mutation A315T (denoted as KCNQ3*), KCNQ2+KCNQ3, and KCNQ2+KCNQ3* expressed in Xenopus oocytes (Fig. 5a). Similar to the effects on KCNQ1 and IKs channels, CP1 changed the amplitude of currents (Fig. 5b), shifted the G–V relation to more negative voltages (Fig. 5c), and slowed the deactivation kinetics (Fig. 5d) for all of these KCNQ channels. These CP1 effects were relatively small on KCNQ2 as compared with those on other KCNQ channels, and the effects on KCNQ2/KCNQ3* and KCNQ2/KCNQ3 complexes were closer to those on KCNQ2 alone.
Fig. 5 Subtype selectivity of CP1 on KCNQ channels. a Current traces of KCNQ channels as indicated in the absence and the presence of 10 µM CP1. […]
The whole-oocyte ionic currents were recorded with a GeneClamp 500B amplifier (Axon Instruments, CA) or iTEV90 amplifier (HEKA, Germany) and then sampled at 1 kHz and low-pass-filtered at 2 kHz. […] The Kir1.1 current was recorded with a high K^+ bath solution containing (in mM) 96 KCl, 4 NaCl, 1 CaCl2, 2 MgCl2, and 10 HEPES, pH 7.3–7.4. The HCN4 current was recorded in ND66 solution containing (in mM) 66 NaCl, 32 KCl, 1.8 CaCl2, 1 MgCl2, and 5 HEPES, pH 7.6. All the other potassium channels were recorded in ND96 solution. The currents of CaV1.2 channel were recorded in 40 mM Ba^2+ bath solution containing (in mM) 40 Ba(OH)2, 50 TEA-OH, 2 KOH, and 5 HEPES, adjusted to pH 7.4 with methanesulfonic acid. […] The HCN4 currents were recorded by a test pulse between −30 and −140 mV in 10-mV step from a holding potential of −30 mV. […]

O=S(=O)([O-])Oc1c(-c2sc3c(ccc4cccc(Cl)c43)c2OS(=O)(=O)[O-])[nH]c2ccc(Br)cc12.[Na+].[Na+] [CP1, DISODIUM 5-BROMO-2-[9-CHLORO-3-(SULFONATOOXY) NAPHTHO [1,2-B] THIEN-2-YL]-1H-INDOL-3-YL SULFATE]
outward current (Icp1/Ictrl) (10 µM CP1, at −10 mV): 1.2737 and 1.6954 and 1.3889 and 1.1185 and 2.1991 | ∆V1/2 (10 µM CP1): 53.8685 mV and 55.0436 mV and 52.8957 mV and 57.617 mV and 27.8181 mV | τ deact at -120 mV (10 µM CP1 treated): 0.795 s and 1.6371 s and 1.4451 s and 1.5742 s and 1.825 s and 1.6646 s
